Reference: US10287616B2, “Label free biosensors, gram-negative bacteria detection, and real-time and end point determination of antibiotic effects” (priority 2015, dated 2019)
Where “and” joins values, the source holds several entries; their conditions need not be identical. Equal values may be shown once. Read-outs that look alike come from different tables or passages of the source.

Assays:
E. coli W1485 [1] = settings: for ΔR (Ω) / ΔR/R0 (%): 3 hours; for ΔF (Hz): FIG. 26
Procedure: Experiments were also performed to study the concentration of the antibiotics and the length of the incubation time of antibiotics for their ability to kill or inhibit the growth of the bacteria. Different concentrations of each antibiotic were added to 5×10^8 cells/mL E. coli respectively, and then incubated at 37° C. and 280 rpm on the shaker. After 3 hours of incubation, 1 μL of antibiotic treated E. coli culture was added to the Con A sensor cell containing 1 mL of 10 mM HEPES buffer (pH 7.4) for QCM measurements, respectively. […] 1 μL of each antibiotic treated E. coli was taken at different incubation times (i.e., 0, 1, 2, 3 hours) and was added into the Con A senor cell containing 1 mL of 10 mM HEPES buffer (pH 7.4) for QCM measurements.
Because antibiotics from different classes have different mechanisms of action and antibiotic effects on bacterial morphology and viability are concentration and time dependent, it was hypothesized that the ability of antibiotics to kill the bacteria or inhibit its growth may be class and concentration dependent, which will affect the interaction between the LPS and Con A sensor. To further study the effects of concentration and length of incubation time on the bactericidal activities of antibiotics, different concentration of antibiotics were added into the broth containing E. coli and incubated for different lengths of times. […] FIGS. 26D through 26F show the histogram of ΔF or ΔR changes vs antibiotics with different concentrations that are again correlated to each other with ceftriaxone showing consistent increase in resistance with increasing its concentration. This is probably due to more and more cell lysis, thereby intensifying the fluidic environment.
To further compare the effect of concentrations on the bactericidal activities of the antibiotics, the binding kinetics between Con A sensor and E. coli were studied. The binding between Con A sensor and E. coli can be described by eq 2. [Con Aattached to gold]+[E. coli]→[E. coli/Con Aattached to gold] (2)
The amount of the complex E. coli/Con A formed at time t after the injection is given by eqs 3 and […], where ΔMmax is the maximum binding amount of E. coli/Con A, ΔM is the measured binding amount, and t is the time after injection. τ is the relaxation time associated with E. coli binding, which is calculated from curve fittings of the ΔF during the binding process. A higher τ value means a longer binding time is required between the Con A and E. coli.

E. coli W1485 [2] = settings: for bacterial (LPS) binding reduced to, frequency shift normalized to control / ΔR (Ω) / ΔR/R0 (%): 18 hours
Procedure: (§1) The gold QCM electrode consisted of a thin AT-cut quartz crystal wafer with vapor deposited gold electrode on each side (10 MHz, non-polished with 1000 A gold, geometric area is 0.22 cm2, International Crystal Company). For all QCM test, the gold electrode was mounted on the side of a KeI-F cell chamber. Frequency monitoring was performed using a Maxtek RQCM quartz crystal microbalance research instrument. Baseline was recorded in 1 mL of 10 mM HEPES buffer containing 1 mM Ca^2+ and 1 mM Mn^2+. Each of the bacterial samples to be analyzed was then added into the detection sensor cell after stabilization of resonance frequency (shift less than 1 Hz·min-1). A small magnetic stir bar was used to increase the mass transfer through convection. The frequency changes (ΔF) of the QCM were monitored using a network/spectrum/impedance analyzer (Agilent 4395A) controlled by a PC via an Intel card.
(§2) In the end point measurement, four samples containing 2×10^5 cells/mL of E. coli obtained from log phase in fresh LB culture were prepared. […] The four samples were incubated for 18 hours, 37° C., 280 rpm on an orbital environmental shaker. Finally, 1 μL of the E. coli culture from the each prepared sample was introduced to the Con A biosensor in 1 mL of 10 mM HEPES buffer (pH 7.4) for QCM and electrochemical biosensor measurements, respectively. The sample without addition of any antibiotic was used as control.
(§3) The concentrations used were based on the literature and current clinically used dosages. The sample without any antibiotic was used as a control. As mentioned above, E. coli W1485 was used as the model Gram-negative bacterial analyte. E. coli W1485 is a “semirough” bacterial strain in which the intact LPS core is capped by a single O-antigen subunit consisting of glucose, N-acetylglucosamine, galactose, and rhamnose in the ratio 1.8:1.0:0.7:0.6, which has been confirmed by the sodium dodecyl sulfate polyacrylamide gel electrophoresis (SDS-PAGE) method. Con A binds specifically at α-D-mannosyl and α-D-glucosyl residues (two hexoses differing only by the alcohol on carbon 2) in the terminal position of ramified structures from β-glycans (reach in α-mannose, or hybrid and biantennary glycanes complexes).
Here the QCM frequency shift is because of the mass loading on the QCM surface due to bacterial adhesion and the change of damping resistance is a result of increasing softness of the interface which causes the damping of the oscillation wave.

E. coli W1485 [3] = settings: for ΔF (Hz): 30 mg/L antibiotic added after E. coli attached to sensor; for ΔF (Hz) / ΔR (Ω) / ΔR/R0 (%): FIG. 25A; for ΔR (Ω) / ΔR/R0 (%): 30 mg/L antibiotic added after E. coli attached; for frequency after antibiotic addition: 2 hour period after addition, from 350, 350 and 370 Hz before addition; for reduction of binding to (LPS activity, real time analysis): 1 hour time point
Procedure: as §1
For the real time measurements, Con A sensor was mounted in a biosensor cell containing 1 mL of 10 mM HEPES buffer (pH 7.4). Real time QCM measurements were obtained for each experimental step. First, 1 μL of 5×10^8 cells/mL E. coli obtained from the stationary phase was added into the biosensor cell. When frequency reached a constant value, it was washed with 1 mL of 10 mM HEPES buffer to remove the unbound E. coli. […] The frequency changes vs time and the damping resistance vs time were recorded by QCM.
Different types of antibiotics have differing abilities to alter the LPS properties and subsequent reduction in their binding. This can be used as an indicator for the antibiotic effects for killing the bacteria or inhibiting their growth. The biosensor ability to quantitatively measure these parameters real time was tested. For that purpose, the Con A sensor was exposed to 1 μL of 5×10^8 cells/mL E. coli to capture the bacteria via Con A-LPS binding. The unbound E. coli was removed by washing with 1 mL of 10 mM HEPES buffer.

E. coli W1485 [4] = experiment: End point antibiotic susceptibility test with Con A biosensor, square wave voltammetry readout; format: cell-based, Escherichia coli; settings: 18 hours, FIG. 24B inset
Procedure: as §2, §3

[5] = E. coli binding to Con A sensor after 1 mg/L antibiotic
[6] = E. coli binding to Con A sensor after 10 mg/L antibiotic
[7] = E. coli binding to Con A sensor after 30 mg/L antibiotic

CO/N=C(\C(=O)N[C@@H]1C(=O)N2C(C(=O)O)=C(CSc3nc(=O)c(=O)[nH]n3C)CS[C@H]12)c1csc(N)n1 [ceftriaxone]
ΔR (Ω) (E. coli W1485 [1]; 1 mg/L antibiotic): 16 Ω | ΔR/R0 (%) (E. coli W1485 [1]; 1 mg/L antibiotic): 5.2% | ΔR (Ω) (E. coli W1485 [1]; 10 mg/L antibiotic): 16.5 Ω | ΔR/R0 (%) (E. coli W1485 [1]; 10 mg/L antibiotic): 5.4% | ΔR (Ω) (E. coli W1485 [1]; 30 mg/L antibiotic): 18 Ω | ΔR/R0 (%) (E. coli W1485 [1]; 30 mg/L antibiotic): 5.8% | relaxation time τ (E. coli W1485 [1]; [5]): 15.5 min | relaxation time τ (E. coli W1485 [1]; [6]): 18.4 min | relaxation time τ (E. coli W1485 [1]; [7]): 22.5 min | bacterial (LPS) binding reduced to, frequency shift normalized to control (E. coli W1485 [2]; 0.1 mg/L antibiotic): 27% | ΔR (Ω) (E. coli W1485 [2]; 0.1 mg/L antibiotic, FIG. 24A): 6 Ω | ΔR/R0 (%) (E. coli W1485 [2]; 0.1 mg/L antibiotic, FIG. 24A): 2.0% | bacterial (LPS) binding reduced to, frequency shift normalized to control (E. coli W1485 [2]; 0.1 mg/L antibiotic, listed as Ceftriaxone): 27% | ΔF (Hz) (E. coli W1485 [2]; log phase E. coli incubated 18 hours, 37° C. with 0.1 mg/L antibiotic, FIG. 24A): 87 Hz | ΔF (Hz) (E. coli W1485 [3]): −25 Hz | ΔR (Ω) (E. coli W1485 [3]): −2.2 Ω | ΔR/R0 (%) (E. coli W1485 [3]): −0.7% | frequency after antibiotic addition (E. coli W1485 [3]; 30 mg/L): 325 Hz | decrease in frequency (fold of value before antibiotic) (E. coli W1485 [3]; 30 mg/L, 2 hour period after antibiotic addition): 0.93 fold | reduction of binding to (LPS activity, real time analysis) (E. coli W1485 [3]; 30 mg/L): 93% | reduction of binding to (LPS activity, real time analysis) (E. coli W1485 [3]; 30 mg/L, listed as Ceftriaxone): 93% | increase of the SWV signal as compared to control (E. coli W1485 [4]; 0.1 mg/L antibiotic): 4.8 folds

O=C(O)c1cn(C2CC2)c2cc(N3CCNCC3)c(F)cc2c1=O [ciprofloxacin]
ΔR (Ω) (E. coli W1485 [1]; 1 mg/L antibiotic): 14.5 Ω | ΔR/R0 (%) (E. coli W1485 [1]; 1 mg/L antibiotic): 4.7% | ΔR (Ω) (E. coli W1485 [1]; 10 mg/L antibiotic): 10.5 Ω | ΔR/R0 (%) (E. coli W1485 [1]; 10 mg/L antibiotic): 3.4% | ΔR (Ω) (E. coli W1485 [1]; 30 mg/L antibiotic): 10.6 Ω | ΔR/R0 (%) (E. coli W1485 [1]; 30 mg/L antibiotic): 3.5% | relaxation time τ (E. coli W1485 [1]; [5]): 21 min | relaxation time τ (E. coli W1485 [1]; [6]): 23.5 min | relaxation time τ (E. coli W1485 [1]; [7]): 23.6 min | most effective concentration to act against this bacterial strain (E. coli W1485 [1]; no big change in ΔF from 10 to 30 mg/L): 10 mg/L | ΔR (Ω) (E. coli W1485 [2]; 0.1 mg/L antibiotic, FIG. 24A): 8 Ω | ΔR/R0 (%) (E. coli W1485 [2]; 0.1 mg/L antibiotic, FIG. 24A): 2.6% | ΔR (Ω) (E. coli W1485 [3]): −2.0 Ω | ΔR/R0 (%) (E. coli W1485 [3]): −0.6% | frequency after antibiotic addition (E. coli W1485 [3]; 30 mg/L): 320 Hz | reduction of binding to (LPS activity, real time analysis) (E. coli W1485 [3]; 30 mg/L): 91% | reduction of binding to (LPS activity, real time analysis) (E. coli W1485 [3]; 30 mg/L, listed as Ciprofloxacin): 91% | increase of the SWV signal as compared to control (E. coli W1485 [4]; 0.1 mg/L antibiotic): 7.2 folds

CN(C)[C@@H]1C(O)=C(C(N)=O)C(=O)[C@@]2(O)C(O)=C3C(=O)c4c(O)cccc4[C@@](C)(O)[C@H]3C[C@@H]12 [tetracycline]
ΔR (Ω) (E. coli W1485 [1]; 1 mg/L antibiotic): 16.3 Ω | ΔR/R0 (%) (E. coli W1485 [1]; 1 mg/L antibiotic): 5.3% | ΔR (Ω) (E. coli W1485 [1]; 10 mg/L antibiotic): 17.2 Ω | ΔR/R0 (%) (E. coli W1485 [1]; 10 mg/L antibiotic): 5.6% | ΔR (Ω) (E. coli W1485 [1]; 30 mg/L antibiotic): 14.5 Ω | ΔR/R0 (%) (E. coli W1485 [1]; 30 mg/L antibiotic): 4.7% | ΔF (Hz) (E. coli W1485 [1]; pretreated 3 hours with 10 mg/L antibiotic): 200 Hz and 212 Hz | ΔF (Hz) (E. coli W1485 [1]; pretreated 3 hours with 30 mg/L antibiotic): 160 Hz | ΔF (Hz) (E. coli W1485 [1]; stationary phase E. coli pretreated 3 hours with 1 mg/L antibiotic): 260 Hz and 262 Hz | ΔR (Ω) (E. coli W1485 [2]; 10 mg/L antibiotic, FIG. 24A): 7.2 Ω | ΔR/R0 (%) (E. coli W1485 [2]; 10 mg/L antibiotic, FIG. 24A): 2.3% | ΔF (Hz) (E. coli W1485 [3]): −20 Hz | ΔR (Ω) (E. coli W1485 [3]): −2.0 Ω | ΔR/R0 (%) (E. coli W1485 [3]): −0.6% | frequency after antibiotic addition (E. coli W1485 [3]; 30 mg/L): 350 Hz | reduction of binding to (LPS activity, real time analysis) (E. coli W1485 [3]; 30 mg/L): 95% | reduction of binding to (LPS activity, real time analysis) (E. coli W1485 [3]; 30 mg/L, listed as Tetracycline): 95% | increase of the SWV signal as compared to control (E. coli W1485 [4]; 10 mg/L antibiotic): 2 folds
